The structures appear in SMILES notation. Where a name gives a salt, the structure may show the parent alone.

Sequence of human TYK2 (JH2domain-pseudokinase) (P29597 556-888): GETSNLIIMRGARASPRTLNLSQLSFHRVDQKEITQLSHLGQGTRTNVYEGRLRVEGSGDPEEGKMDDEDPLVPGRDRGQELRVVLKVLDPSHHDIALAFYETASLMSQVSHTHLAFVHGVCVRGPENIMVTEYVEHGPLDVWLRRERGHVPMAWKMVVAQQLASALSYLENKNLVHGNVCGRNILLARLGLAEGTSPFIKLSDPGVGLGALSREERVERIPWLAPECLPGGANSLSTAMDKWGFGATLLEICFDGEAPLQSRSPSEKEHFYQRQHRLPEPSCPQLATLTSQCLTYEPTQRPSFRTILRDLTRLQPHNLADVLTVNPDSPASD

One assay addresses human TYK2 (JH2domain-pseudokinase) (Homo sapiens (Human), UniProt P29597). Kind of assay: TYK2 JH2 Domain Binding Assay (KINOMEscan competition binding). The following applies: KINOMEscan; 11-point 3-fold dilution, top concentration 30,000 nM; Kd measurements in duplicate; read-out: TYK JH2 (Kd). The method, then:
Binding constants for compounds disclosed herein may be determined by the KINOMEscan® assay developed by DiscoveRx. KINOMEscan® is based on a competition binding assay that quantitatively measures the ability of a compound to compete with an immobilized, active-site directed ligand. The assay is performed by combining three components: DNA-tagged kinase; immobilized ligand; and a test compound. The ability of the test compound to compete with the immobilized ligand is measure via quantitative PCR of the DNA tag.
Binding constants for compounds disclosed herein against the JH2 domain are determined by the following protocol for a KINOMEscan® assay (DiscoveRx). A fusion protein of a partial length construct of human TYK2 (JH2domain-pseudokinase) (amino acids G556 to D888 based on reference sequence NP 003322.3) and the DNA binding domain of NFkB is expressed in transiently transfected HEK293 cells. From these HEK 293 cells, extracts are prepared in M-PER extraction buffer (Pierce) in the presence of Protease Inhibitor Cocktail Complete (Roche) and Phosphatase Inhibitor Cocktail Set II (Merck) per manufacturers' instructions. The TYK2 (JH2domain-pseudokinase) fusion protein is labeled with a chimeric double-stranded DNA tag containing the NFkB binding site (5′-GGGAATTCCC-3′) fused to an amplicon for qPCR readout, which is added directly to the expression extract (the final concentration of DNA-tag in the binding reaction is 0.1 nM).
Streptavidin-coated magnetic beads (Dynal M280) are treated with a biotinylated small molecule ligand for 30 minutes at room temperature to generate affinity resins for the binding assays. The liganded beads are blocked with excess biotin and washed with blocking buffer (SeaBlock (Pierce), 1% BSA, 0.05% Tween 20, 1 mM DTT) to remove unbound ligand and to reduce nonspecific binding.
Extracts are used directly in binding assays without any enzyme purification steps at a >10,000-fold overall stock dilution (final DNA tagged enzyme concentration<0.1 nM). Extracts are loaded with DNA-tag and diluted into the binding reaction in a two-step process. First extracts are diluted 1:100 in 1× binding buffer (PBS/0.05% Tween 20/10 mM DTT/0.1% BSA/[…] sonicated salmon sperm DNA) containing 10 nM DNA-tag. This dilution is allowed to equilibrate at room temperature for 15 minutes and then subsequently diluted 1:100 in 1× binding buffer. Test compounds are prepared as 111× stocks in 100% DMSO. Kds are determined using an 11-point 3-fold compound dilution series with three DMSO control points. All compounds for Kd measurements are distributed by acoustic transfer (non-contact dispensing) in 100% DMSO. The compounds are then diluted directly into the assays such that the final concentration of DMSO is 0.9%. All reactions performed in polypropylene 384-well plates. Each is a final volume of 0.02 mL. Assays are incubated with shaking for 1 hour at room temperature. Then the beads are pelleted and washed with wash buffer (lx PBS, 0.05% Tween 20) to remove displaced kinase and test compound. The washed beads are re-suspended in elution buffer (lx PBS, 0.05% Tween 20, 0.5 μM non-biotinylated affinity ligand) and incubated at room temperature with shaking for 30 minutes. The kinase concentration in the eluates is measured by qPCR. qPCR reactions are assembled by adding 2.5 μL of kinase eluate to 7.5 μL of qPCR master mix containing 0.15 μM amplicon primers and 0.15 μM amplicon probe. The qPCR protocol consists of a 10-minute hot start at 95° C., followed by 35 cycles of 95° C. for 15 seconds, 60° C. for 1 minute.
Test compounds are prepared as 111× stocks in 100% DMSO. Kds are determined using an 11-point 3-fold compound dilution series with three DMSO control points. All compounds for Kd measurements are distributed by acoustic transfer (non-contact dispensing) in 100% DMSO. The compounds are then diluted directly into the assays such that the final concentration of DMSO is 0.9%. […]
With `CC1CNCCN1c1ncc(C(N)=O)c(Nc2ccccc2S(C)(=O)=O)n1` (racemic) [Compound 63, 2-(2-methylpiperazin-1-yl)-4-((2-(methylsulfonyl)phenyl)amino)pyrimidine-5-carboxamide hydrochloride], the Kd was determined as 1400 nM.

In the case of `CC1CNCCN1c1ncc(C(N)=O)c(Nc2ccc(C3CC3)nc2)n1` (stereo not shown) [Compound 12, 4-((6-cyclopropylpyridin-3-yl)amino)-2-(2-methylpiperazin-1-yl)pyrimidine-5-carboxamide], the dissociation constant (Kd) is 800 nM.

In the case of `CNC(=O)c1cnc(N2CCC(C(=O)O)CC2)nc1Nc1cccc(-c2ncc(F)cn2)c1OC` [Compound 27, 1-(4-((3-(5-fluoropyrimidin-2-yl)-2-methoxyphenyl)amino)-5-(methylcarbamoyl)pyrimidin-2-yl)piperidine-4-carboxylic acid], the Kd is 36 nM.

Regarding `COc1ccccc1Nc1nc(N2CCC(C(=O)O)CC2)ncc1C(N)=O` [Compound 44, 1-(5-carbamoyl-4-((2-methoxyphenyl)amino)pyrimidin-2-yl)piperidine-4-carboxylic Acid], the Kd is 2400 nM.

Turning to `COc1c(Nc2nc(N3CCN(C(C)=O)CC3C)ncc2C(N)=O)cccc1-c1ncc(F)cn1` (stereo not shown) [Compound 60, 2-(4-acetyl-2-methylpiperazin-1-yl)-4-((3-(5-fluoropyrimidin-2-yl)-2-methoxyphenyl)amino)pyrimidine-5-carboxamide], the dissociation constant (Kd) amounted to 2 nM.

As to `COc1c(Nc2nc(N3CCCNCC3)ncc2C(N)=O)cccc1-c1ncc(F)cn1` [Compound 73, 2-(1,4-diazepan-1-yl)-4-((3-(5-fluoropyrimidin-2-yl)-2-methoxyphenyl)amino)pyrimidine-5-carboxamide Hydrochloride], the Kd is 150 nM.

Turning to `CNC(=O)c1cnc(N2CCCN(C(C)=O)CC2)nc1Nc1ccccc1S(C)(=O)=O` [Compound 75, 2-(4-acetyl-1,4-diazepan-1-yl)-N-methyl-4-((2-(methylsulfonyl)phenyl)amino)pyrimidine-5-carboxamide], the Kd was found to be 1300 nM.

Consider `COc1c(Nc2nc(N3CCCN(C(C)=O)CC3)ncc2C(N)=O)cccc1-c1ncc(F)cn1` [Compound 81, 2-(4-acetyl-1,4-diazepan-1-yl)-4-((3-(5-fluoropyrimidin-2-yl)-2-methoxyphenyl)amino)pyrimidine-5-carboxamide], for which the Kd is 370 nM.

For `COc1c(Nc2nc(N3CCN(C(=O)OC(C)(C)C)CC3C)ncc2C(N)=O)cccc1-c1ncc(F)cn1` (stereo not shown) [Compound 37, Tert-Butyl 4-(5-carbamoyl-4-((3-(5-fluoropyrimidin-2-yl)-2-methoxyphenyl)amino)pyrimidin-2-yl)-3-methylpiperazine-1-carboxylate], the Kd is 34 nM.

`CNC(=O)c1cnc(N2CCNCC2C)nc1Nc1cccc(-c2ncc(F)cn2)c1OC` (stereo not shown) [Compound 25, 4-((3-(5-fluoropyrimidin-2-yl)-2-methoxyphenyl)amino)-N-methyl-2-(2-methylpiperazin-1-yl)pyrimidine-5-carboxamide Hydrochloride]: the Kd is 180 nM.

In the case of `CNC(=O)c1cnc(N2CC[C@H](C(=O)NC)C2)nc1Nc1ccc(C2CC2)nc1` [Compound 6, (S)-4-((6-cyclopropylpyridin-3-yl)amino)-N-methyl-2-(3-(methylcarbamoyl)pyrrolidin-1-yl)pyrimidine-5-carboxamide], the Kd was 430 nM.

`CNC(=O)c1cnc(N2CCCN(C(C)=O)CC2)nc1Nc1cccc(-c2ncc(F)cn2)c1OC` [Compound 77, 2-(4-acetyl-1,4-diazepan-1-yl)-4-((3-(5-fluoropyrimidin-2-yl)-2-methoxyphenyl)amino)-N-methylpyrimidine-5-carboxamide]: the Kd amounted to 170 nM.

Consider `CNC(=O)c1cnc(N2CCCN(C(C)=O)CC2)nc1Nc1ccccc1OC` [Compound 24, 2-(4-acetyl-1,4-diazepan-1-yl)-4-((2-methoxyphenyl)amino)-N-methylpyrimidine-5-carboxamide], for which the Kd amounted to 4900 nM.

Regarding `CNC(=O)c1cnc(N2CCCNCC2)nc1Nc1ccccc1S(C)(=O)=O` [Compound 67, 2-(1,4-diazepan-1-yl)-N-methyl-4-((2-(methylsulfonyl)phenyl)amino)pyrimidine-5-carboxamide hydrochloride], the Kd came out at 3400 nM.

Take `CC1CN(C(=O)OC(C)(C)C)CCN1c1ncc(C(N)=O)c(Nc2ccccc2S(C)(=O)=O)n1` (racemic) [Compound 55, Tert-Butyl 4-(5-carbamoyl-4-((2-(methylsulfonyl)phenyl)amino)pyrimidin-2-yl)-3-methylpiperazine-1-carboxylate]: the Kd came to 180 nM.

`O=C(NO)c1cnc(N2CCCC2)nc1Nc1ccc(C2CC2)nc1` [Compound 54, 4-((6-cyclopropylpyridin-3-yl)amino)-N-hydroxy-2-(pyrrolidin-1-yl)pyrimidine-5-carboxamide]: the Kd stood at 160 nM.

For the compound `CNC(=O)c1cnc(N2CC(C(=O)NC)C2)nc1Nc1cccc(-c2ncc(F)cn2)c1OC` [Compound 49, 4-((3-(5-fluoropyrimidin-2-yl)-2-methoxyphenyl)amino)-N-methyl-2-(3-(methylcarbamoyl)azetidin-1-yl)pyrimidine-5-carboxamide], the Kd is 2.3 nM.

Regarding `CNC(=O)c1cnc(N2CCCNCC2)nc1Nc1ccc(C2CC2)nc1` [Compound 22, 4-((6-cyclopropylpyridin-3-yl)amino)-2-(1,4-diazepan-1-yl)-N-methylpyrimidine-5-carboxamide Hydrochloride], the Kd amounted to 11000 nM.

On to `NC(=O)c1cnc(N2CCC(C(=O)O)CC2)nc1Nc1ccc(C2CC2)nc1` [Compound 35, 1-(5-carbamoyl-4-((6-cyclopropylpyridin-3-yl)amino)pyrimidin-2-yl)piperidine-4-carboxylic acid], for which the Kd was 710 nM.

With `COc1c(Nc2nc(N3CCNCC3C)ncc2C(N)=O)cccc1-c1ncc(F)cn1` (stereo not shown) [Compound 57, 4-((3-(5-fluoropyrimidin-2-yl)-2-methoxyphenyl)amino)-2-(2-methylpiperazin-1-yl)pyrimidine-5-carboxamide], the Kd worked out at 49 nM.

Take `COc1ccccc1Nc1nc(N2CCNCC2C)ncc1C(N)=O` (stereo not shown) [Compound 42, 4-((2-methoxyphenyl)amino)-2-(2-methylpiperazin-1-yl)pyrimidine-5-carboxamide hydrochloride]: the Kd is 3300 nM.

Regarding `CNC(=O)c1cnc(N2CCCN(C(=O)OC(C)(C)C)CC2)nc1Nc1ccccc1OC` [Compound 30, Tert-Butyl 4-(4-((2-methoxyphenyl)amino)-5-(methylcarbamoyl)pyrimidin-2-yl)-1,4-diazepane-1-carboxylate], the dissociation constant Kd amounted to 44000 nM.

As to `COc1ccccc1Nc1nc(N2CCCN(C(=O)OC(C)(C)C)CC2)ncc1C(N)=O` [Compound 41, Tert-Butyl 4-(5-carbamoyl-4-((2-methoxyphenyl)amino)pyrimidin-2-yl)-1,4-diazepane-1-carboxylate], the dissociation constant (Kd) turned out to be 19000 nM.

As for `CNC(=O)c1cnc(N2CCN(C(C)=O)CC2C)nc1Nc1cccc(-c2ncc(F)cn2)c1OC` (stereo not shown) [Compound 61, 2-(4-acetyl-2-methylpiperazin-1-yl)-4-((3-(5-fluoropyrimidin-2-yl)-2-methoxyphenyl)amino)-N-methylpyrimidine-5-carboxamide], the Kd came out at 15 nM.

Staying with this assay, now noted: Table 4: pyrimidinyl compound of Formula I versus compounds with a different heteroaryl core; read-out: TYK JH2 (Kd).
On to `CNC(=O)c1cnc(N2CCC(C(=O)NC)C2)cc1Nc1ccc(C2CC2)nc1` (stereo not shown) [reference compound], for which the Kd amounted to 10000 nM.

A word on the Kd: it is the equilibrium constant for the complex coming apart.

(Values after patent publication US20250257051A1, “SUBSTITUTED PYRIMIDINE COMPOUNDS AS TYK2 INHIBITORS” (1910 Genetics Inc., priority 2022, published 2025).)
